Measured values published in patent US20070020241A1, “Use of photosensitisation” (priority 2003, published 2007).

Legend:
[1] = test system: Streptococcus pyogenes ATCC 12202; assay: Lethal photosensitization of Streptococcus pyogenes using SnCe6 and laser light; format: cell-based
Procedure: (§1) streptococcus pyogenes ATCC 12202 was grown in Brain Heart Infusion broth at 37° C. in an atmosphere consisting of 5% CO2 in air. The cells were harvested by centrifugation and re-suspended in phosphate buffered saline (PBS) and diluted to 1×10^7 cfu/ml in PBS. 20 μl samples of the diluted bacterial suspension were then placed into wells of a 96-well plate, together with a magnetic stirrer bar. 100 μl of different concentrations (1-50 μg/ml) of the SnCe6 in PBS was added to the bacterial suspensions. Controls were performed with 100 μl PBS added to the bacteria and either irradiated (L+S−) or kept in the dark (L−S−). The experiment was carried out in duplicate.
(§2) After incubation, the contents of some of the wells were exposed to light from the 35 mW Helium/Neon laser emitting light with a wavelength of 633nm for 10 min, with stirring, corresponding to an energy density of 42 J/cm^2. Aluminium foil was placed in the surrounding wells to allow any escaping laser light to be reflected back into the target well. Control wells were not irradiated with laser light.
After exposure to the laser light, 100 μl samples were immediately taken from each well and serially diluted, from 10^−1 to 10^−5, in 1 ml TSY in 1.5 ml Eppendorf tubes. Duplicate 50 μl aliquots of each dilution were then spread out on half a CBA plate. The plates were placed in a 37° C. incubator for up to 48 h and the resulting colonies were counted to determine the number of surviving organisms.

S. aureus 8325-4 [2] = assay: Targeted photodynamic therapy using Φ11-SnCe6 conjugates and a laser light source; format: cell-based, Staphylococcus aureus; conditions: 1.15 μg ml^−1 SnCe6, 633 nm 35 mW HeNe laser 5 minutes (21 J/cm^2)
Procedure: Bacteriophage Φ11 was propagated and precipitated as described above for phage 75, except that S aureus strain 8325-4 was used as the propagating strain. Tin chlorin e6 (SnCe6) was conjugated onto Staphylococcus phage Φ11 using the method described above, achieving bound concentrations of 2.3 and 3.5 μg ml^−1 SnCe6 with the phage Φ11 at 4.7×10^7 pfu.ml^−1. […] The final concentration of conjugated SnCe6 was 1.15 μg ml^−1.
The light source was a 35 mW Helium/Neon laser and irradiation (when used) was for 5 minutes in the case of FIGS. 3 and 4, and for 10 minutes in the case of FIG. 5.

[3] = test system: Propionibacterium acnes ATCC 29399; assay: Lethal photosensitization of Propionibacterium acnes using SnCe6 and laser light; format: cell-based
Procedure: as §1, with “Propionibacterium acnes ATCC 29399” for “streptococcus pyogenes ATCC 12202”, “acnes ATCC 29399 was grown” for “pyogenes ATCC 12202 was grown”, “grown in pre-reduced Brain Heart” for “grown in Brain Heart”, “in an anaerobic atmosphere. The cells” for “in an atmosphere consisting of 5% CO2 in air. The cells”, “diluted to 1×10^8 cfu/ml in” for “diluted to 1×10^7 cfu/ml in”
as §2, with “633 nm” for “633nm”
After exposure to the laser light, 100 μl samples were immediately taken from each well and serially diluted, from 10^−1 to 10^−5, in 1 ml of pre-reduced TSY in 1.5 ml Eppendorf tubes. Duplicate 50 μl aliquots of each dilution were then spread out on half a CBA plate. The plates were incubated anaerobically at 37° C. and the resulting colonies were counted to determine the number of surviving organisms.

EMRSA-16 = assay: Lethal photosensitisation using phage 75-SnCe6 conjugate and a white light source; format: cell-based, Staphylococcus aureus; conditions: for % kill (L+S+): vs PBS in the dark
Text: (§3) Bacterial strains: S. aureus 8325-4 • EMRSA-16
(§4) Light source: KL200 (Schott). This is a 20-watt halogen cold light source. The light guide attached to it is a flexible optic fibre bundle which is directed onto a 96 well plate at a distance of 5 cm. A square of 4-wells is placed at the centre of the light source.
(§5) Approx light intensity=44,000 lux or 470 μW/nm
(§6) Phage 75 was conjugated to SnCe6 as described above. Phages were used at a concentration of 1×10^7 pfu/ml.
(§7) Overnight cultures of S. aureus grown in nutrient broth were centrifuged, resuspended in PBS and adjusted to an OD of 0.05 at 600 nm (approximately 4×10^7 cfu/ml)
(§8) 50 μl of bacterial culture was aliquoted into a 96-well plate and 50 μl of the one of the following solutions added to the wells: • 1) 3.5 μg/ml SnCe6-phage 75 (final concentration 1.75 μg/ml, 1×10^6 pfu/well) in PBS • 2) 1.75 μg/ml SnCe6-phage 75 (final concentration 0.875 μg/ml, 5×10^5 pfu/well) in PBS • 3) 3.5 μg/ml SnCe6 in PBS (final concentration 1.75 μg/ml) • 4) 1.75 μg/ml SnCe6 in PBS (final concentration 0.875 μg/ml) • 5) PBS • 6) Phage 75 at a concentration of 5×10^5 or 1×10^6 pfu/well in PBS
(§9) Wells were either exposed to white light (4 wells at a time) or wrapped in tin foil and stored in the dark.
(§10) After various exposure times an aliquot was taken from each well, serially diluted and spread onto Columbia blood agar. Agar plates were incubated overnight at 37° C. and counted the next day.

S. aureus 8325-4 [4] = assay: as above; format: cell-based, Staphylococcus aureus; conditions: for % kill (L+S+): vs PBS in the dark
Text: as §3, §4, §5, §6, §7, §8, §9, §10

16 strains of EMRSA = conditions: red light, higher light doses; cited from earlier work
[5] = 633 nm laser 10 min, 42 J/cm^2, 1-50 μg/ml
[6] = dark, increasing concentrations (1-50 μg/ml)
[7] = photosensitiser 50 μg/ml, 633 nm laser 10 min, 42 J/cm^2
[8] = white light 10 min, final photosensitiser 0.875 μg/ml
[9] = white light 10 min, final photosensitiser 1.75 μg/ml
[10] = white light 20 min, final photosensitiser 1.75 μg/ml
[11] = without exposure to white light

| Molecule | effect on the viable count, irradiation [1, 5] | effect on the viable count, incubation in the dark [1, 6] | % kill of the organism [1, 7] [%] | % kill (compared to control counts in phosphate buffered saline) (S. aureus 8325-4 [2]) | effect on the viable count, irradiation [3, 5] | effect on the viable count, incubation in the dark [3, 6] | % kill of the organism [3, 7] [%] | % kill (L+S+) (EMRSA-16; [8]) [%] | % kill (L+S+) (EMRSA-16; [9]) [%] | % kill (L+S+) (EMRSA-16; [10]) [%] | bacterial counts of controls vs unirradiated suspension without photosensitiser (EMRSA-16; [11]) | % kill (L+S+) (S. aureus 8325-4 [4]; [8]) [%] | % kill (L+S+) (S. aureus 8325-4 [4]; [9]) [%] | % kill (L+S+) (S. aureus 8325-4 [4]; [10]) [%] | bacterial counts of controls vs unirradiated suspension without photosensitiser (S. aureus 8325-4 [4]; [11]) | % killing (16 strains of EMRSA) [%] |
| --- | --- | --- | --- | --- | --- | --- | --- | --- | --- | --- | --- | --- | --- | --- | --- | --- |
| C=CC1=C(C)C2=CC3=NC(=C(CC(=O)[O-])C4=NC(=C(C)C4=C([O-])[O-])C=c4[n-]c(c(C)c4CC)=CC1=N2)C(CCC(=O)[O-])C3C.[H+].[Sn+4] (stereo not shown) [SnCe6, tin (IV) chlorin e6] | concentration-dependent decrease in the viable count | no significant effect | 99.9997 | did not achieve any kill | concentration-dependent decrease in the viable count | no significant effect | 100 | 0 | 0 | 99.78 | not significantly different | 45.3 | 97.8 | 97.9 | not significantly different |  |
| aluminium disulphonated phthalocyanine [AlPcS2] |  |  |  |  |  |  |  |  |  |  |  |  |  |  |  | 100 |
